Test results from patent US20190069576A1, “Solid Form Nutrient Compositions” (Railsplitter Feed Technology, Inc., priority 2016, published 2019).

System: infant pigs
Assay: Hemoglobin measurement of pigs treated with granular materials or iron dextran injections
Type: in vivo, pig
Method: In Example 6, four litters of pigs were provided granular product (sample numbers 272 and 280). These litters were offered these granular products ad litum from birth to 21 days of birth. Two litters were not offered granular material, but were instead injected with iron dextran on day 3 after birth with 1 cc of 200 mg of iron dextran. Two other litters, also not offered granular material, were injected twice, once on day 3, and once on day 10 after birth. Each injection was a 1 cc injection of 200 mg of iron dextran.
The National Research Council in the Nutrient Requirement of Swine publication recommends that levels of iron dextran providing more than 200 mg per pig in one injection be avoided. Many producers provide a second injection to minimize the deficiency which doubles the cost of preventing anemia in young pigs, and increases the probability of spreading pathogens with needles.
Hemoglobin analysis is an excellent way to quantitate the adequacy of iron for the pig but the treatment differences are obvious by just viewing the litters.
A striking difference between healthy hemoglobin adequate pigs and anemic pigs is the color of the skin. This is most obvious in white pigs, and most pigs in US have some white color in their breed lineage. Pigs with hemoglobin values above 10 gm per 100 ml. have extremely bright, pink skin, while anemic pigs have very pale almost white color of the skin.

[1] = 1 injection, day 3, 1 cc of 200 mg, first litter (12 pigs)
[2] = 1 injection, second litter (10 pigs)
[3] = 2 injections, day 3 and day 10, each 1 cc of 200 mg, first litter (7 pigs)
[4] = 2 injections, second litter (11 pigs)

## iron dextran
[1]
  Pigs <10 gm % (hemoglobin): 10
  Pigs >10 gm % (hemoglobin): 2
[2]
  Pigs <10 gm % (hemoglobin): 4
  Pigs >10 gm % (hemoglobin): 6
1 injection, total of 22 pigs
  % with adequate Hemoglobin: 36%
  Pigs <10 gm % (hemoglobin): 14
  Pigs >10 gm % (hemoglobin): 8
[3]
  Pigs <10 gm % (hemoglobin): 2
  Pigs >10 gm % (hemoglobin): 5
[4]
  Pigs <10 gm % (hemoglobin): 2
  Pigs >10 gm % (hemoglobin): 9
2 injections, total of 18 pigs
  % with adequate Hemoglobin: 77%
  Pigs <10 gm % (hemoglobin): 4
  Pigs >10 gm % (hemoglobin): 14
